Source: PMC5932348, “Identification and Characterization of c-di-GMP Metabolic Enzymes of Leptospira interrogans and c-di-GMP Fluctuations After Thermal Shift and Infection” (Frontiers in Microbiology, 2018)

Columns and labels:
Assay in all cases: RP-HPLC product detection, […] nm
Assay type in all cases: biochemical
LA2528 = biological target: T1, LA2528 (Leptospira interrogans, UniProt Q8F383); details: 100 uM GTP; pH 7.8; 10 mM MgCl2; 28 C, 1 h; product c-di-GMP
T1 construct: gene pleD; full-length REC-GGDEF protein, pET-28a or pET-32a, E. coli BL21(DE3), Ni-NTA
T1 sequence (Q8F383 entry or part of it): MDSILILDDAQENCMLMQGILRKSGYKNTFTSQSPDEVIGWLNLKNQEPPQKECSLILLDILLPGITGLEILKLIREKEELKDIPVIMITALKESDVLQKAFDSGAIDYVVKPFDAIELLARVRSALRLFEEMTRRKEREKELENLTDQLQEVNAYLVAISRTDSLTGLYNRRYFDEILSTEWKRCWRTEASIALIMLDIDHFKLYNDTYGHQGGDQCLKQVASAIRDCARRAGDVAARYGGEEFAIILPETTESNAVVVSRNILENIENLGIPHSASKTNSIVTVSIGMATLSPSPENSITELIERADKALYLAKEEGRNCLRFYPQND

LA1483 = biological target: T2, LA1483 (Leptospira interrogans, UniProt Q8F629); details: 100 uM GTP; pH 7.8; 10 mM MgCl2; 28 C, 1 h; product c-di-GMP
T2 construct: gene LA_1483; full-length GAF-GGDEF protein, pET-28a or pET-32a, E. coli BL21(DE3), Ni-NTA
T2 sequence (Q8F629 entry or part of it): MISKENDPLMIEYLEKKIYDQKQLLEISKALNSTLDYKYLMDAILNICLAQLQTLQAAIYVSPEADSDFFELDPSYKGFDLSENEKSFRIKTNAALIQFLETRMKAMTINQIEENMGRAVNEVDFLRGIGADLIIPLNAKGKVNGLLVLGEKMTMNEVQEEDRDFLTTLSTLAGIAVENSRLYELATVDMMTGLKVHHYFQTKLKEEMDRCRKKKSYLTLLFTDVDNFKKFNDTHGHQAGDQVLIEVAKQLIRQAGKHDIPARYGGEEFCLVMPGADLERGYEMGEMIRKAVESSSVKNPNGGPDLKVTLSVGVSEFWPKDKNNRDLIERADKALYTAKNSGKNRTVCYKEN

LA2383 = biological target: T3, LA2383 (Leptospira interrogans, UniProt Q8F3L8); details: 10 uM substrate; pH 8.5; 5 mM MgCl2; 10 mM MnCl2; 28 C, 1 h
T3 construct: gene LA_2383; HD-GYP protein lacking the conserved HD residues, pET-28a or pET-32a, E. coli BL21(DE3), Ni-NTA
T3 sequence (Q8F3L8 entry or part of it): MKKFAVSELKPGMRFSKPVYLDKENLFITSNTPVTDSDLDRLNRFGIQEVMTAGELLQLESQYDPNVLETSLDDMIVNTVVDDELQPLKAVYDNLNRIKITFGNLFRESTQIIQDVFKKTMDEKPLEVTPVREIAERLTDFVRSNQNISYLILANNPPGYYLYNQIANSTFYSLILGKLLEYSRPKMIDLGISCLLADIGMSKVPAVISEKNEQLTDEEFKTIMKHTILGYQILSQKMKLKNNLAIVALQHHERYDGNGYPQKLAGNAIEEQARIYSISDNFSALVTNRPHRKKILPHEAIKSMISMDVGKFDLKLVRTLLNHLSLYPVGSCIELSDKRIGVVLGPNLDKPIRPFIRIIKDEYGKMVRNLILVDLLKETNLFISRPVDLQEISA

Nc1nc2c(ncn2[C@@H]2O[C@H](COP(=O)(O)OP(=O)(O)OP(=O)(O)O)[C@@H](O)[C@H]2O)c(=O)[nH]1 [GTP]
RP-HPLC product detection, 254 nm (LA2528): they are able to utilize GTP to produce c-di-GMP
RP-HPLC product detection, 254 nm (LA1483): they are able to utilize GTP to produce c-di-GMP

Nc1nc2c(ncn2[C@@H]2O[C@@H]3COP(=O)(O)O[C@H]4[C@@H](O)[C@H](n5cnc6c(=O)[nH]c(N)nc65)O[C@@H]4COP(=O)(O)O[C@H]3[C@H]2O)c(=O)[nH]1 [c-di-GMP]
RP-HPLC product detection, 254 nm (LA2383): LA2383 was able to hydrolyze both c-di-GMP and pGpG in vitro and produce GMP

Nc1nc2c(ncn2[C@@H]2O[C@H](COP(=O)(O)O[C@H]3[C@@H](O)[C@H](n4cnc5c(=O)[nH]c(N)nc54)O[C@@H]3COP(=O)(O)O)[C@@H](O)[C@H]2O)c(=O)[nH]1 [pGpG]
RP-HPLC product detection, 254 nm (LA2383): LA2383 was able to hydrolyze both c-di-GMP and pGpG in vitro and produce GMP
